The source of these data is ChEMBL document CHEMBL1201862, “PubChem BioAssay data set” (2004).

Some test systems named below: KM12; OVCAR-5; HT-29; EKVX; MCF7; A498; MDA-N; NCI-H226; SW-620; 786-0; U-251; UO-31; COLO 205; ACHN; CAKI-1; Hs-578T; SF-539; M14; A549; SF-268.
Common to all, as to experiment: NCI-60 cell line screen, 48 h

Structures are written as SMILES.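 Growth conditions: 96-well plates. Treatment: test compound, 48 hours, 5 concentrations. Analysis: linear interpolation between bracketing concentrations; unreached endpoints set to highest concentration. Here, GI50 denotes the concentration required for 50% inhibition of growth.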 Activity calls are given as the source filed them. Cut-off read from the data, not from the text of the source: active = GI50 up to about 1.1 µM and inactive = higher. Non-standard residues stand in square brackets, D forms with d. Residues, ends and D or L forms follow the SMILES beside them. ξ: configuration not given here. Pentanoyl(2-O,4-OH,5-Cl) = O=C(O)C(O)CC(O)CCl; Ile(3ξ) = CCC(C)[C@H](N)C(=O)O; NMeV = CN[C@H](C(=O)O)C(C)C; NMeA = CN[C@@H](C)C(=O)O; βAla = NCCC(=O)O

As for `CC(C)(C)/N=c1/n(C(C)(C)C)oc(=O)n1C(C)(C)C`, the GI50 in the experiment on KM12, with OVCAR-5, with HT-29, with EKVX, with MCF7 and in the experiment with A498 was > 100 µM (inactive) in each case. Besides, the GI50 in the experiment with MDA-N, with NCI-H226, with SW-620, with 786-0, in the experiment with U-251 and in the experiment on UO-31 was > 100 µM (inactive) in each case. The GI50 with COLO 205, in the experiment on ACHN, with CAKI-1, with Hs-578T, with SF-539 and in the experiment on M14 was > 100 µM (inactive) in each case. Besides, the GI50 in the experiment with A549 is > 100 µM (inactive).

`O/N=C1\CSc2ccccc2C1`: the GI50 in the experiment with SF-268 is > 100 µM (inactive); in the experiment on KM12, > 100 µM (inactive); with OVCAR-5, > 100 µM (inactive); in the experiment on HT-29, > 100 µM (inactive); with EKVX, 30.6 µM (inactive); with MCF7 it was > 100 µM (inactive). The GI50 in the experiment with A498 was 51.6 µM (inactive); with MDA-N, > 100 µM (inactive); in the experiment with NCI-H226 it was > 100 µM (inactive); with SW-620 it was > 100 µM (inactive); with 786-0, > 100 µM (inactive); in the experiment with U-251 it was > 100 µM (inactive). The GI50 is > 100 µM (inactive) with UO-31; > 100 µM (inactive) in the experiment on COLO 205; > 100 µM (inactive) with ACHN; 90.2 µM (inactive) with CAKI-1; 41.8 µM (inactive) in the experiment on Hs-578T; > 100 µM (inactive) in the experiment with SF-539. Besides, the GI50 in the experiment with M14 and in the experiment on A549 was > 100 µM (inactive) in each case.

Regarding `O=C(Nc1ccccc1)OCCN=C1c2ccccc2C(Br)C(Br)c2ccccc21` (stereo not drawn), the GI50 was 10.5 µM (inactive) in the experiment with SF-268; 13.2 µM (inactive) with KM12; 16 µM (inactive) in the experiment with OVCAR-5; 5.25 µM (inactive) with HT-29; 10 µM (inactive) in the experiment with EKVX; 5.68 µM (inactive) in the experiment on MCF7. For the same molecule, the GI50 with A498 was 13.2 µM (inactive); with MDA-N it was 3.82 µM (inactive); in the experiment with NCI-H226 it was 12.6 µM (inactive); in the experiment with SW-620, 4.43 µM (inactive); with 786-0, 2.82 µM (inactive); in the experiment on U-251, 8.45 µM (inactive). In addition, the GI50 is 2.02 µM (inactive) in the experiment with UO-31; 4.94 µM (inactive) in the experiment with COLO 205; 10.2 µM (inactive) with ACHN; 6.49 µM (inactive) in the experiment on CAKI-1; 12.4 µM (inactive) with Hs-578T; 5.07 µM (inactive) with SF-539. Moreover, the GI50 is 4.34 µM (inactive) with M14 and 16 µM (inactive) with A549.

As to `Cc1ccc(NC(=O)/C(=N/N(C)C)C(C2OC(=O)c3ccccc32)[N+](=O)[O-])cc1` (stereo not drawn), the GI50 in the experiment on SF-268, in the experiment on KM12, in the experiment with OVCAR-5, in the experiment with HT-29, in the experiment with MCF7 and in the experiment with A498 was > 100 µM (inactive) throughout. The GI50 in the experiment with MDA-N, in the experiment on NCI-H226, in the experiment on SW-620, in the experiment with 786-0, with U-251 and in the experiment with UO-31 was > 100 µM (inactive) each time. Moreover, the GI50 in the experiment with ACHN, in the experiment on CAKI-1, with Hs-578T, in the experiment with SF-539, in the experiment with M14 and with A549 was > 100 µM (inactive) each time.

In the case of `O=C/C(=C1/C=Cc2cc([N+](=O)[O-])ccc2S1)c1ccccc1`, the GI50 with SF-268, with OVCAR-5, in the experiment with HT-29, in the experiment on EKVX, with MCF7 and in the experiment with A498 was > 100 µM (inactive) in each case. The GI50 with MDA-N, with NCI-H226, in the experiment on 786-0, with U-251, in the experiment with UO-31 and in the experiment with COLO 205 was > 100 µM (inactive) throughout. For the same molecule, the GI50 with ACHN, in the experiment with CAKI-1, with Hs-578T, in the experiment with SF-539, in the experiment on M14 and in the experiment with A549 was > 100 µM (inactive) each time.

`CSc1ncnc2c1ncn2CCC#N`: the GI50 in the experiment with SF-268, in the experiment with KM12, in the experiment with OVCAR-5, in the experiment on HT-29, with EKVX and with MCF7 was > 100 µM (inactive) in each case. Also, the GI50 in the experiment with A498, with MDA-N, in the experiment with NCI-H226, in the experiment on SW-620, with 786-0 and with UO-31 was > 100 µM (inactive) in each case. For the same molecule, the GI50 with COLO 205, in the experiment with ACHN, in the experiment with CAKI-1, in the experiment with Hs-578T, with SF-539 and in the experiment with M14 was > 100 µM (inactive) in each case. In addition, in the experiment on A549, the GI50 was > 100 µM (inactive).

Consider `CCC(C)[C@@H]1NC(=O)[C@@H]2CCCN2C(=O)C(CC(O)CCl)OC(=O)CCNC(=O)[C@H](C)N(C)C(=O)[C@H](C(C)C)N(C)C1=O` (stereo partly drawn) (cyclo([Ile(3ξ)][NMeV][NMeA][βAla][Pentanoyl(2-O,4-OH,5-Cl)]P)), for which the GI50 was > 100 µM (inactive) with SF-268; > 61.9 µM (inactive) in the experiment with KM12; > 100 µM (inactive) in the experiment on OVCAR-5; 3.12 µM (inactive) with HT-29; > 100 µM (inactive) with EKVX; > 39.8 µM (inactive) in the experiment on MCF7. The GI50 is > 29.1 µM (inactive) with A498; > 100 µM (inactive) in the experiment on MDA-N; > 100 µM (inactive) in the experiment on NCI-H226; > 58.9 µM (inactive) in the experiment on SW-620; > 29 µM (inactive) in the experiment with U-251; > 93.3 µM (inactive) in the experiment with UO-31. For the same molecule, the GI50 with COLO 205 was 1.91 µM (inactive); with ACHN it was > 100 µM (inactive); in the experiment with CAKI-1, > 100 µM (inactive); with Hs-578T it was > 91.6 µM (inactive); with SF-539, > 100 µM (inactive); with M14, 0.46 µM (active). Besides, the GI50 in the experiment with A549 is 47.6 µM (inactive).
